Assay results from US20170209408A1, “HSP90 INHIBITORS FOR THE TREATMENT OF OBESITY AND METHODS OF USE THEREOF” (The Children's Medical Center Corporation, priority 2014, published 2017).
“Also recorded” adds a separate entry of the source.

Columns and labels:
[1] = rating from cited sources, cited from earlier work
HFD-fed obese mice = assay: Body weight and food intake in high fat diet (HFD)-fed obese mice, daily i.p. injection; format: in vivo, C57Bl/6J mice; settings: three weeks, vs DMSO vehicle
Experimental: To investigate whether gambogic acid can act as an anti-obesity drug by increasing leptin sensitivity and reducing appetite, C57Bl/6J mice were placed on a high fat diet (HFD; Research Diets, D12451, 45 kcal % fat) feeding for 16 weeks. After establishment of obesity and leptin resistance, mice were administered gambogic acid (at 0.5 mg/kg, in 25 μl DMSO, once per day) and vehicle (DMSO, 25 μl) with intraperitoneal (i.p.) injection. The animals had free access to food and water unless otherwise stated. In all experiments, three days prior to drug administration, the animals went through an acclimation period where they were given DMSO (25 μl) to reduce the effect of stress created by i.p. injection. Following three days acclimation, mice were administered gambogic acid daily i.p. injections at 0.5 mg/kg for three weeks in 25 μl of DMSO as vehicle, whereas the control group received the same volume of DMSO. […] To investigate whether tanespimycin can act as an anti-obesity drug by increasing leptin sensitivity and reducing appetite, C57Bl/6J mice were placed on a high fat diet (HFD; Research Diets, D12451, 45 kcal % fat) feeding for 16 weeks. After establishment of obesity and leptin resistance, mice were administered tanespimycin (at 15 mg/kg, in 25 μl DMSO, once per day) and vehicle (DMSO, 25 μl) with intraperitoneal (i.p.) injection. The animals had free access to food and water unless otherwise stated. In all experiments, three days prior to drug administration, the animals went through an acclimation period where they were given DMSO (25 μ1) to reduce the effect of stress created by i.p. injection. Following three days acclimation, mice were administered tanespimycin daily i.p. injections at 15 mg/kg for three weeks in 25 μl of DMSO as vehicle, whereas the control group received the same volume of DMSO. […] To investigate whether NVP-AUY922 can act as an anti-obesity drug by increasing leptin sensitivity and reducing appetite, C57Bl/6J mice were placed on a high fat diet (HFD; Research Diets, D12451, 45 kcal % fat) feeding for 16 weeks. After establishment of obesity and leptin resistance, mice were administered NVP-AUY922 (at 15 mg/kg, in 25 μl DMSO, once per day) and vehicle (DMSO, 25 μl) with intraperitoneal (i.p.) injection. The animals had free access to food and water unless otherwise stated. In all experiments, three days prior to drug administration, the animals went through an acclimation period where they were given DMSO (25 μ1) to reduce the effect of stress created by i.p. injection. Following three days acclimation, mice were administered NVP-AUY922 daily i.p. injections at 15 mg/kg for three weeks in 25 μl of DMSO as vehicle, whereas the control group received the same volume of DMSO.

lean mice = assay: Body weight and food intake in 10-week old lean mice on chow diet, i.p. injection; format: in vivo; settings: three weeks
Experimental: Gambogic acid was administered to 10-week old lean mice on chow diet at 0.5 mg/kg for three weeks by i.p. injections. […] Tanespimycin was administered to 10-week old lean mice on chow diet at 15 mg/kg for three weeks by i.p. injections. […] NVP-AUY922 was administered to 10-week old lean mice on chow diet at 15 mg/kg for three weeks by i.p. injections.

[2] = system: leptin receptor deficient (db/db) mice; assay: Body weight and food intake in leptin receptor deficient (db/db) mice; format: in vivo; settings: 0.5 mg/kg once a day
Experimental: To explore whether gambogic acid's effect is leptin dependent, gambogic acid (0.5 mg/kg, once a day, in 25μ1 DMSO) was administered to leptin receptor deficient (db/db) mice.

[3] = 0.5 mg/kg i.p. once per day, 0.5 mg/kg

In the case of `[Cr]` [Chromium], the Safety [1] is listed as “Likely safe”.
In the case of `CCNC(=O)c1noc(-c2cc(C(C)C)c(O)cc2O)c1-c1ccc(CN2CCOCC2)cc1` [NVP-AUY922], the body weight (HFD-fed obese mice; 15 mg/kg i.p. once per day) is reported as “significantly decreased”, the food intake (lean mice; 15 mg/kg i.p.) is reported as “failed to induce bodyweight loss or food intake” and the body weight (lean mice; 15 mg/kg i.p., 15 mg/kg) is reported as “little or no decrease; also recorded: failed to induce bodyweight loss”.
With `CC(C)=CCC[C@]1(C)C=Cc2c(O)c3c(c(CC=C(C)C)c2O1)O[C@]12C(=C[C@@H]4C[C@H]1C(C)(C)O[C@@]2(C/C=C(/C)C(=O)O)C4=O)C3=O` [gambogic acid] the body weight (HFD-fed obese mice; [3]) was “significantly decreased; also recorded: decreased body weight”, the food intake (HFD-fed obese mice; [3]) was “significantly decreased” and the food intake (HFD-fed obese mice; 0.5 mg/kg i.p. once per day, listed as SR-03, 0.5 mg/kg) was “significant decrease”. The body weight (lean mice; 0.5 mg/kg i.p., 0.5 mg/kg) was “little or no decrease; also recorded: failed to induce bodyweight loss”, the food intake (lean mice; 0.5 mg/kg i.p., 0.5 mg/kg) was “failed to induce bodyweight loss or food intake” and the food intake (lean mice; 0.5 mg/kg i.p., listed as SR-03, 0.5 mg/kg) was “little or no effect”. The food intake [2] was “continued to increase similar to the vehicle treated group” and the body weight ([2]; 0.5 mg/kg) was “continued to increase similar to the vehicle treated group; also recorded: not in db/db mice”.
In the case of Conjugated linoleic acid, the Safety [1] is listed as “Possibly safe” and the Effectiveness ([1]; weight loss) is listed as “Possibly effective”.
